Earlier results on two substances are cited in US20100331966A1, “BIOCORRODIBLE IMPLANT HAVING AN ACTIVE COATING” (priority 2009, published 2010).

The test system of the data set is hyperlipidemic rabbits.
Where [1] appears, read: hyperlipidemic rabbits, repeated administration.

Turning to hyaluronidase, under setting [1], the atheromatous vascular plaque entry is recorded as “significant decrease”, the blood cholesterol entry is “lowering”, the fibrin content result is listed as “lowering” and the “heparin content in the plasma” value is “increase”. The “vascular permeability in the tissue” value under setting [1] is “increased”.
With “hyaluronate lyase [bacteria hyaluronate lyase]”, where the note is “rabbit, in vivo”, the plaque-loosening effect result was “confirmed”.
